Key:
[1] = molecular target: T1, CYP2C19 (Homo sapiens, UniProt P33261); assay: Single concentration Kobs assay (time-dependent inhibition) in HLM; type: biochemical; settings: for Kobs 2C19: HLM, 0.02 min^−1 indicates TD inhibition potential; for Kobs 2C19 / inhibition at 30 min: single concentration; for Single concentration Kobs assay (risk bin) 2C19: TD inhibition class from Kobs vs 0.02 min^−1 (Table 5 traffic lights); for inhibition at 30 min: human, human liver microsomes, significant if >50%, read-out: 2C19 R_Inh% (reversible inhibition)
T1 construct: Using HLM as the enzyme source; from tissue; host or cells: human liver microsomes
T1 sequence (P33261 whole entry): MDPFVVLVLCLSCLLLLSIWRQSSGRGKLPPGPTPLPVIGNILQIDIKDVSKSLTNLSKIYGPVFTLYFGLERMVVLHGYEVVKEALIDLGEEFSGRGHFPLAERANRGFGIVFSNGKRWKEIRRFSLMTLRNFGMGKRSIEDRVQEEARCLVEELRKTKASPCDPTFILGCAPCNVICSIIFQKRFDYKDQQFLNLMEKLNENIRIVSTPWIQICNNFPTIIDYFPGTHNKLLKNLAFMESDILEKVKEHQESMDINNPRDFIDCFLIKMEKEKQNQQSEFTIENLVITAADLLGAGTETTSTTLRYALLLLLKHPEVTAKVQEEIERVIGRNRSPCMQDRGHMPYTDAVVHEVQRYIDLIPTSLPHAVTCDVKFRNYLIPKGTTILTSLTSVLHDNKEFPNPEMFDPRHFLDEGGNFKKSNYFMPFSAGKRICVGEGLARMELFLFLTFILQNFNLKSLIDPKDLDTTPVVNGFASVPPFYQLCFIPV
Source text: (§1) CYP inhibition evaluation is typically performed by either IC50 at single-point or IC50 Shift or abbreviated assay such as the first-order inactivity rate constant (K obs ) at single concentration.
(§2) This method yielded good correlations between the percent inhibition at 10 or 25 μ M and kinact/KI. Evaluation of TD inhibition at single concentration has been implemented in several drug discovery programs. […] Therefore, in this study, a single K obs approach has been utilized to understand the TD inhibition potential of TbB ligands. Ideally, the inhibition of CYPs can be reversible or irreversible. The data obtained from single-concentration K obs studies were analyzed to understand the same. From the data presented in Table 4, the TbB ligands have values less than 50% for reversible inhibition (R_Inh). As the qualified % reversible inhibition is considered significant if >50%, no significant reversible inhibition is observed for TbB ligands. Knowledge about enzyme inactivation half-life (E½) is also equally important as it would provide insight into the TD inhibition of a compound. E½ can be used to bin the compounds as positive or negative TD inhibitors if the values are <28 or >28, respectively. The TbB ligand 223-2 is observed to be a weak positive TD inhibitor of 1A2 and is negative TD inhibitor to the other six CYP isoforms.
(§3) The time-dependent inhibition (TDI) potential of test compounds against CYP1A2, 2B6, 2C8, 2C9, 2C19, 2D6, 3A4/5 isoforms were determined using Human liver microsomes. Assay is performed in 96-deep well plate format (n = 1). Positive controls and DMSO as negative control in each assay. To obtain 100 μ M working stock solution, 1 μ L of blank DMSO/test/reference compounds to 100 μ L 1× DPBS buffer was added and labeled as dilution plate. To the primary incubation plate, 45 μ L of primary mix was dispensed to the desired wells containing 25 μ L HLM, 10 μ L MgCl2, and 10 μ L of NADPH working solutions. To the secondary incubation plate, 95 μ L of secondary mix was dispensed to the desired wells containing 20 μ L MgCl2, 20 μ L NADPH, 10 μ L respective substrates for CYP isoform working solutions and 45 μ L 1× DPBS buffer. […] Pre-incubated the dilution plate along with primary incubation plate at 37 °C for 15 min at 450 rpm. The reaction was carried out in triplicate. After the incubation, the reaction was quenched by adding 150 μ L ice cold stop solution to all the wells followed by centrifuging the samples at 4000 rpm, 4 °C for 15 min. The supernatant samples were then transferred into vials for LC-MS/MS analysis. […]

[2] = molecular target: T2, CYP1A2 (Homo sapiens, UniProt P05177); assay: as above; type: biochemical; settings: for Kobs 1A2: HLM, 0.02 min^−1 indicates TD inhibition potential; for Kobs 1A2 / inhibition at 30 min: single concentration; for Single concentration Kobs assay (risk bin) 1A2: TD inhibition class from Kobs vs 0.02 min^−1 (Table 5 traffic lights); for inhibition at 30 min: human, human liver microsomes, significant if >50%, read-out: 1A2 R_Inh% (reversible inhibition)
T2 construct: Using HLM as the enzyme source; from tissue; host or cells: human liver microsomes
T2 sequence (P05177 1-516): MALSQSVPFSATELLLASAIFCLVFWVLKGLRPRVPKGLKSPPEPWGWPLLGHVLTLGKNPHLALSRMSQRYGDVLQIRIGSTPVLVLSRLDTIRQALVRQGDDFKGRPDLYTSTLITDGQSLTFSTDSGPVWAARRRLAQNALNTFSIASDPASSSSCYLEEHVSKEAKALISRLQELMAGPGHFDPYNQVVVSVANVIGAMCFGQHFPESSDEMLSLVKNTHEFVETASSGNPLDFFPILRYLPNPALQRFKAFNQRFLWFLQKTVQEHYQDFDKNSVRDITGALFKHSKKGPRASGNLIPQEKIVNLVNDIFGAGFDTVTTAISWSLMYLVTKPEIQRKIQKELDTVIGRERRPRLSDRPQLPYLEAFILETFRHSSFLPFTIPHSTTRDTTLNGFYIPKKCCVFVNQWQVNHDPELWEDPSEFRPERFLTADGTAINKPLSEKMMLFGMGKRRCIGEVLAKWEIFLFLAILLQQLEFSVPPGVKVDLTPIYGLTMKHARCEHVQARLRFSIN
Source text: as §1, §2, §3

[3] = test system: estrogenicity; settings: cited from earlier work

Row | SMILES | Kobs 2C19 [1] | Kobs 2C19 ([1]; listed as 223-02) | Single concentration Kobs assay (risk bin) 2C19 [1] | inhibition at 30 min [1] | Kobs 1A2 [2] | Kobs 1A2 ([2]; listed as 223-02) | Single concentration Kobs assay (risk bin) 1A2 [2] | inhibition at 30 min [2] | estrogenicity by in vitro studies [3] | Kobs 2C19 ([1]; listed as 223-03) | Kobs 1A2 ([2]; listed as 223-03)
1 | COc1cc(-c2nnn(-c3cc(OC)c(O)c(OC)c3)n2)cc(OC)c1O [223-2] | 0.0206 min⁻¹ | 0.02058 min⁻¹ | weak positive inhibitor | < 50% | 0.0159 min⁻¹ | 0.01594 min⁻¹ | weak positive inhibitor | < 50% | potentially non-estrogenic |  | 
2 | Cc1cc(-c2nnn(-c3cc(C)c(O)c(C)c3)n2)cc(C)c1O [223-3] | 0.0306 min⁻¹ |  | positive inhibitor | < 50% | 0.0333 min⁻¹ |  | positive inhibitor | < 50% | potentially non-estrogenic | 0.03055 min⁻¹ | 0.03334 min⁻¹
3 | Oc1ccc(-c2nnn(-c3ccc(O)cc3)n2)cc1 [223-10] | 0.00365 min⁻¹ |  | negative inhibitor | < 50% | 0.01456 min⁻¹ |  | weak positive inhibitor | < 50% |  |  | 
